Source: the supplement of paper PMC10307832

Columns and labels:
Assay in all cases: relative viability (nuclei count vs DMSO), 5 days (fraction); higher = more cells survive
[1] = compound: CC1=C(C(=O)N2C=CSC2=N1)CCN3CCC(=C(C4=CC=CC=C4)C5=CC=C(C=C5)F)CC3 + CC(=O)c1c(C)c2cnc(Nc3ccc(N4CCNCC4)cn3)nc2n(C2CCCC2)c1=O [Palbociclib] (partner 0.5 µM)
Procedure, shortened: (§1)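 One day after seeding in 1536-well plates, lung cancer cell lines were dosed by pin tool. Dosing was either single-drug or a fixed anchor-drug dose plus five library-drug doses (not always all listed) in √10 steps. After 5 days, nuclei were stained in one fix-and-stain step and counted on 4× images, and relative viability is the nuclei count of treated wells over that of vehicle wells, given as the median of duplicate plates.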

[2] = compound: CC1=C(C(=O)N2C=CSC2=N1)CCN3CCC(=C(C4=CC=CC=C4)C5=CC=C(C=C5)F)CC3 + C[C@@H](Oc1cc(-c2cnn(C3CCNCC3)c2)cnc1N)c1c(Cl)ccc(F)c1Cl [Crizotinib] (partner 1 µM)
Procedure, shortened: as §1

[3] = compound: CC1=C(C(=O)N2C=CSC2=N1)CCN3CCC(=C(C4=CC=CC=C4)C5=CC=C(C=C5)F)CC3 + NC(=O)Nc1cc(-c2cccc(F)c2)sc1C(=O)N[C@H]1CCCNC1 [AZD7762] (partner 0.2 µM)
Procedure, shortened: as §1

[4] = compound: CC1=C(C(=O)N2C=CSC2=N1)CCN3CCC(=C(C4=CC=CC=C4)C5=CC=C(C=C5)F)CC3 + O=C(CCCCCCC(=O)Nc1ccccc1)NO [Vorinostat] (partner 1 µM)
Procedure, shortened: as §1

Cell Line 201T has a relative viability ([1]; first compound 0.08 µM) of 0.355, a relative viability ([1]; first compound 0.253 µM) of 0.35 and a relative viability ([1]; first compound 0.8 µM) of 0.366. It also gave a relative viability ([1]; first compound 2.53 µM) of 0.35, a relative viability ([1]; first compound 8 µM) of 0.348 and a relative viability ([2]; first compound 0.08 µM) of 1.02. For the same cell line, the relative viability ([2]; first compound 0.253 µM) was 1.03, the relative viability ([2]; first compound 0.8 µM) was 1.01 and the relative viability ([2]; first compound 2.53 µM) was 1.05. It also gave a relative viability ([2]; first compound 8 µM) of 1.08, a relative viability ([3]; first compound 0.08 µM) of 0.718 and a relative viability ([3]; first compound 0.253 µM) of 0.513. It also gave a relative viability ([3]; first compound 0.8 µM) of 0.579, a relative viability ([3]; first compound 2.53 µM) of 0.621 and a relative viability ([3]; first compound 8 µM) of 0.586. For the same cell line, the relative viability ([4]; first compound 0.08 µM) was 1.07, the relative viability ([4]; first compound 0.253 µM) was 0.93 and the relative viability ([4]; first compound 0.8 µM) was 1.02. The relative viability ([4]; first compound 2.53 µM) was 1.01 and the relative viability ([4]; first compound 8 µM) was 0.595.
A549 showed a relative viability ([2]; first compound 0.08 µM) of 0.855, a relative viability ([2]; first compound 0.253 µM) of 0.777 and a relative viability ([2]; first compound 0.8 µM) of 0.665. The relative viability ([2]; first compound 2.53 µM) was 0.64 and the relative viability ([2]; first compound 8 µM) was 0.579.
With A-427 the relative viability ([1]; first compound 0.08 µM) was 0.533, the relative viability ([1]; first compound 0.253 µM) was 0.565 and the relative viability ([1]; first compound 0.8 µM) was 0.499. For the same cell line, the relative viability ([1]; first compound 2.53 µM) was 0.541, the relative viability ([1]; first compound 8 µM) was 0.531 and the relative viability ([2]; first compound 0.08 µM) was 0.749. For the same cell line, the relative viability ([2]; first compound 0.253 µM) was 0.95, the relative viability ([2]; first compound 0.8 µM) was 0.942 and the relative viability ([2]; first compound 2.53 µM) was 0.963. For the same cell line, the relative viability ([2]; first compound 8 µM) was 0.646, the relative viability ([3]; first compound 0.08 µM) was 0.675 and the relative viability ([3]; first compound 0.253 µM) was 0.678. For the same cell line, the relative viability ([3]; first compound 0.8 µM) was 0.67, the relative viability ([3]; first compound 2.53 µM) was 0.633 and the relative viability ([3]; first compound 8 µM) was 0.674. For the same cell line, the relative viability ([4]; first compound 0.08 µM) was 0.878, the relative viability ([4]; first compound 0.253 µM) was 0.824 and the relative viability ([4]; first compound 0.8 µM) was 0.86. It also gave a relative viability ([4]; first compound 2.53 µM) of 0.91 and a relative viability ([4]; first compound 8 µM) of 0.748.
ABC-1 was tested, and the relative viability ([1]; first compound 0.08 µM) was 0.579, the relative viability ([1]; first compound 0.8 µM) was 0.581 and the relative viability ([1]; first compound 2.53 µM) was 0.559. For the same cell line, the relative viability ([1]; first compound 8 µM) was 0.67, the relative viability ([2]; first compound 0.08 µM) was 1.13 and the relative viability ([2]; first compound 0.253 µM) was 1.42. For the same cell line, the relative viability ([2]; first compound 0.8 µM) was 0.931, the relative viability ([2]; first compound 2.53 µM) was 0.722 and the relative viability ([2]; first compound 8 µM) was 0.748. It also gave a relative viability ([3]; first compound 0.08 µM) of 0.751, a relative viability ([3]; first compound 0.253 µM) of 0.746 and a relative viability ([3]; first compound 0.8 µM) of 0.791. The relative viability ([3]; first compound 2.53 µM) was 0.766, the relative viability ([3]; first compound 8 µM) was 0.677 and the relative viability ([4]; first compound 0.08 µM) was 1.14. It also gave a relative viability ([4]; first compound 0.8 µM) of 0.938, a relative viability ([4]; first compound 2.53 µM) of 0.949 and a relative viability ([4]; first compound 8 µM) of 0.784.
With BEN the relative viability ([1]; first compound 0.08 µM) was 0.455, the relative viability ([1]; first compound 0.253 µM) was 0.498 and the relative viability ([1]; first compound 0.8 µM) was 0.479. The relative viability ([1]; first compound 2.53 µM) was 0.558, the relative viability ([1]; first compound 8 µM) was 0.498 and the relative viability ([2]; first compound 0.08 µM) was 0.725. The relative viability ([2]; first compound 0.253 µM) was 0.818, the relative viability ([2]; first compound 0.8 µM) was 0.963 and the relative viability ([2]; first compound 2.53 µM) was 0.963. For the same cell line, the relative viability ([2]; first compound 8 µM) was 0.69, the relative viability ([3]; first compound 0.08 µM) was 0.732 and the relative viability ([3]; first compound 0.253 µM) was 0.677. The relative viability ([3]; first compound 0.8 µM) was 0.638, the relative viability ([3]; first compound 2.53 µM) was 0.638 and the relative viability ([3]; first compound 8 µM) was 0.651. It also gave a relative viability ([4]; first compound 0.08 µM) of 0.548, a relative viability ([4]; first compound 0.253 µM) of 0.589 and a relative viability ([4]; first compound 0.8 µM) of 0.523. For the same cell line, the relative viability ([4]; first compound 2.53 µM) was 0.682 and the relative viability ([4]; first compound 8 µM) was 0.495.
CAL-12T was tested, and the relative viability ([1]; first compound 0.08 µM) was 0.371, the relative viability ([1]; first compound 0.253 µM) was 0.389 and the relative viability ([1]; first compound 0.8 µM) was 0.434. For the same cell line, the relative viability ([1]; first compound 2.53 µM) was 0.462, the relative viability ([1]; first compound 8 µM) was 0.319 and the relative viability ([2]; first compound 0.08 µM) was 0.694. It also gave a relative viability ([2]; first compound 0.253 µM) of 0.829, a relative viability ([2]; first compound 0.8 µM) of 0.657 and a relative viability ([2]; first compound 2.53 µM) of 0.741. It also gave a relative viability ([2]; first compound 8 µM) of 0.46, a relative viability ([3]; first compound 0.08 µM) of 0.605 and a relative viability ([3]; first compound 0.253 µM) of 0.751. It also gave a relative viability ([3]; first compound 0.8 µM) of 0.576, a relative viability ([3]; first compound 2.53 µM) of 0.699 and a relative viability ([3]; first compound 8 µM) of 0.503. The relative viability ([4]; first compound 0.08 µM) was 0.566, the relative viability ([4]; first compound 0.253 µM) was 0.728 and the relative viability ([4]; first compound 0.8 µM) was 0.727. For the same cell line, the relative viability ([4]; first compound 2.53 µM) was 0.957 and the relative viability ([4]; first compound 8 µM) was 0.513.
Cell Line COR-L23 has a relative viability ([1]; first compound 0.08 µM) of 0.292, a relative viability ([1]; first compound 0.253 µM) of 0.306 and a relative viability ([1]; first compound 0.8 µM) of 0.255. The relative viability ([1]; first compound 2.53 µM) was 0.286, the relative viability ([1]; first compound 8 µM) was 0.27 and the relative viability ([2]; first compound 0.08 µM) was 0.503. The relative viability ([2]; first compound 0.253 µM) was 0.758, the relative viability ([2]; first compound 0.8 µM) was 0.608 and the relative viability ([2]; first compound 2.53 µM) was 0.649. For the same cell line, the relative viability ([2]; first compound 8 µM) was 0.419, the relative viability ([4]; first compound 0.08 µM) was 0.438 and the relative viability ([4]; first compound 0.253 µM) was 0.365. The relative viability ([4]; first compound 0.8 µM) was 0.46, the relative viability ([4]; first compound 2.53 µM) was 0.421 and the relative viability ([4]; first compound 8 µM) was 0.405.
COR-L 105 was tested, and the relative viability ([1]; first compound 0.08 µM) was 0.439, the relative viability ([1]; first compound 0.253 µM) was 0.419 and the relative viability ([1]; first compound 0.8 µM) was 0.383. The relative viability ([1]; first compound 2.53 µM) was 0.406, the relative viability ([1]; first compound 8 µM) was 0.383 and the relative viability ([2]; first compound 0.08 µM) was 0.676. It also gave a relative viability ([2]; first compound 0.253 µM) of 0.809, a relative viability ([2]; first compound 0.8 µM) of 0.641 and a relative viability ([2]; first compound 2.53 µM) of 0.836. For the same cell line, the relative viability ([2]; first compound 8 µM) was 0.786, the relative viability ([4]; first compound 0.08 µM) was 0.58 and the relative viability ([4]; first compound 0.253 µM) was 0.738. For the same cell line, the relative viability ([4]; first compound 0.8 µM) was 0.882, the relative viability ([4]; first compound 2.53 µM) was 1.29 and the relative viability ([4]; first compound 8 µM) was 0.607.
Calu-6 was tested, and the relative viability ([2]; first compound 0.08 µM) was 0.713, the relative viability ([2]; first compound 0.253 µM) was 0.864 and the relative viability ([2]; first compound 0.8 µM) was 0.631. The relative viability ([2]; first compound 2.53 µM) was 0.782 and the relative viability ([2]; first compound 8 µM) was 0.576.
ChaGo-K-1 was tested, and the relative viability ([1]; first compound 0.08 µM) was 0.919, the relative viability ([1]; first compound 0.253 µM) was 0.92 and the relative viability ([1]; first compound 0.8 µM) was 0.989. The relative viability ([1]; first compound 2.53 µM) was 1.05, the relative viability ([1]; first compound 8 µM) was 0.649 and the relative viability ([2]; first compound 0.08 µM) was 1.17. The relative viability ([2]; first compound 0.253 µM) was 1.32, the relative viability ([2]; first compound 0.8 µM) was 1.29 and the relative viability ([2]; first compound 2.53 µM) was 0.706. The relative viability ([2]; first compound 8 µM) was 1.03, the relative viability ([3]; first compound 0.08 µM) was 0.763 and the relative viability ([3]; first compound 0.253 µM) was 0.919. For the same cell line, the relative viability ([3]; first compound 0.8 µM) was 0.925, the relative viability ([3]; first compound 2.53 µM) was 0.928 and the relative viability ([3]; first compound 8 µM) was 0.694. For the same cell line, the relative viability ([4]; first compound 0.08 µM) was 0.616, the relative viability ([4]; first compound 0.253 µM) was 0.76 and the relative viability ([4]; first compound 0.8 µM) was 0.809. It also gave a relative viability ([4]; first compound 2.53 µM) of 0.757 and a relative viability ([4]; first compound 8 µM) of 0.597.
